{"source": "patent EP3246445A1", "about": "“LIPOXIN A4 DELIVERY SYSTEM BY A POROUS ELECTROSPUN POLYMERIC MEMBRANE” (Universita' Degli Studi G. D Annunzio Chieti - Pescara, priority 2016, dated 2017)", "key": {"[1]": {"assay": "Release of LXA4 from PEO/PDLLA membranes in PBS, RP-HPLC", "type": "physicochemical", "description": "The release of LXA4 from the membrane was evaluated using phosphate-buffered saline solution (PBS) (pH 7.4, at 37°C). Pieces (3 cm x 2.5 cm, ∼33 mg, sample) of membranes, empty or LXA4-loaded, were placed in 100 mm dishes containing PBS (8 mL) and maintained at 37 °C, 5% CO2 and 95% humidity for 1, 3, 18, 48, 72 and 96 h. LXA4 release was assessed by HPLC analysis after solid phase extraction. Following incubation with PBS, membranes were diluted with 2 volumes of cold MeOH and stored at -80°C until extraction. All samples were extracted using C-18 cartridges (Bond Elut Varian, Agilent Technologies, Milan) as previously described (Romano M, Luciotti G, Gangemi S, Marinucci F, Prontera C, D'Urbano E, et al. Urinary excretion of lipoxin A(4) and related compounds: development of new extraction techniques for lipoxins. Laboratory investigation; a journal of technical methods and pathology. 2002;82(9):1253-4). Before extraction, PGB2 (50 ng/sample) was added to each sample as internal standard to calculate extraction recovery. Samples were then taken to dryness using a rotary evaporator, suspended in 10 mL of deionized (dd) H2O containing MeOH, acidified to pH 3.5 and rapidly loaded onto C-18 columns previously equilibrated with MeOH and (dd) H2O. After sample loading, columns were washed with (dd) H2O to restore a neutral pH. Samples were eluted with 7 mL of methyl formate and taken to dryness using a Speedvac apparatus. The dried samples were then suspended in MeOH (100 µl) and injected into an HPLC apparatus (Agilent 1100) equipped reverse phase-HPLC with a Hypersil C-18 column (300 mm x 4 mm x 5 µm, Waters) and a photodiode array detector (Waters) for online UV spectroscopy. LXA4 was identified by UV spectroscopy and considering the chromatographic retention time.\nLXA4 releasing from the PEO/PDLLA membranes was investigated by incubating membranes with a PBS solution at pH 7.4 for varying times. LXA4 was quantitated by RP-HPLC. […] The maximum release was observed after 48 h (17%), followed by a progressive decrement at 72 h and 96 h (around 11%). Approximately 25% of LXA4 was recovered as trans isomer, in line with the content of Romano M, Serhan CN. Lipoxin generation by permeabilized human platelets. Biochemistry."}, "hPDLSCs": {"test_system": "hPDLSCs", "assay": "Proliferation assay with LXA4 released from PEO/PDLLA membrane", "type": "cell-based, Human", "details": "LXA4 eluted from PEO/PDLLA membranes in PBS", "description": "Bioptic samples of periodontal ligament were obtained from volunteers aged 20-35 years, exempt from systemic or oral disease, after undesigning the informed consent deed. The study was approved by the Medical Ethic Committee of the \"G. D'Annunzio\" University, Chieti, Italy (n°266/17.04.14). The periodontal tissue obtained by bioptic samples, grinded and washed several times with PBS (Lonza, Basel, Switzerland) was cultured using TheraPEAK™MSCGM-CD™ BulletKit serum free (MSCGM-CD) medium for the growth of human mesamchimal steam cells (MSCGM-CD) (Lonza), to minimize the exposure to substances of non-human origin. Human periodontal ligament stem cells (hPDLSCs) were obtained and cultured as reported in Trubiani O, Piattelli A, Gatta V, Marchisio M, Diomede F, D'Aurora M, et al. Assessment of an efficient xeno-free culture system of human periodontal ligament stem cells. […]\nFor the proliferation assay with LXA4 released from PEO/PDLLA membrane, hPDLSCs (2 x 10^3 cells/well) were seeded in 96-well microplates with complete medium overnight at 37 °C and 5%CO2. […] Data were expressed as proliferation index, calculated as the ratio between values from cells exposed to membrane-eluted LXA4 and from cells exposed to vehicle only (ethanol) of LXA4. […]\nThe proliferation and migration of hPDLSC growth a direct contact with fragment of LXA4-loaded membrane were evaluated. […]"}}, "data": [{"compound": "CCCCC[C@H](O)/C=C/C=C\\C=C\\C=C\\[C@@H](O)[C@@H](O)CCCC(=O)O", "note": "[LXA4, Lipoxin A4]", "values": [{"measurement": "LXA4 released", "setting": "[1]; PBS pH 7.4, 37 °C, 72 h", "value": "around 11%"}, {"measurement": "LXA4 released", "setting": "[1]; PBS pH 7.4, 37 °C, 96 h", "value": "around 11%"}, {"measurement": "LXA4 released, maximum release", "setting": "[1]; PBS pH 7.4, 37 °C, after 48 h", "value": 17, "unit": "%"}, {"measurement": "LXA4 released, of the total LXA4 added to membranes", "setting": "[1]; PBS pH 7.4, 37 °C, within 3 h", "value": "approximately 15%"}, {"measurement": "LXA4 recovered as trans isomer", "setting": "[1]; of the total LXA4 eluted from the membranes", "value": "Approximately 25%"}, {"measurement": "biological activities on hPDLSCs after release", "setting": "hPDLSCs", "value": "retained its biological activities on hPDLSCs"}]}]}
